Assay results: a melting point compilation (Tetko et al.; mined from patent text by program, amines drawn as free bases though some values may be those of a salt)

| SMILES | melting point [°C] |
| --- | --- |
| CCN(C)C(=O)C(Cc1ccc(C#N)cc1)NC(=O)C(Cc1ccc(OC)cc1)S(=O)(=O)Nc1ccc(Cl)c(Cl)c1 (stereo not given) | 192 |
| Cn1c(=O)[nH]c2ccc(Br)cc21 | 237 to 238 |
| COc1cnc(N2CCN(c3ccc(-n4c(C)nn(CC(=O)c5ccc(Cl)cc5)c4=O)cc3)CC2)nc1 | 220 |
| COc1ccc(C(F)(F)F)cc1NC(=O)CCl | 94.7 |
| O=C(Nc1cccc2cc(COc3ccccc3)cnc12)c1c(Cl)cccc1Cl | 157 |
| O=c1c2ccccc2sn1CCN1CC=C(c2ccccc2)CC1 | 90 to 92 |
| O=C(O)c1cc(CCCBr)ccc1O | 68 to 73 |
| Brc1cc2c(c(C34CC5CC(CC(C5)C3)C4)c1)OCO2 | 136 |
| C=C=CC1(NC(=O)c2ccccc2)CCCNC1=O (stereo not given) | 203 to 204 |
| COc1ccc2c(c1)c(CNc1ccccc1Oc1ccc(Cl)cc1)cn2C(C)=O | 140 to 141 |
| COc1ccc(/C=C/S(=O)(=O)CS(=O)(=O)/C=C/c2ccc(OC)c(O)c2)cc1O | 148 to 150 |
| CCCCCN1C(=O)C2CC(c3ccc(N)cc3)(C2)C1=O | 92 to 94 |
| O=C1c2ccccc2-n2cncc2[C@@H]2CCCN12 | 211 to 212 |
| CCCCCCCc1ccc(C(=O)CCCC(=O)O)cc1 | 101 |
| COc1ccc(-c2oc3cc(C)c(C)cc3c2-c2ccc(OC)cc2)cc1 | 153 |
| COc1ccc2nc(N3CCNCC3)cc(C(F)(F)F)c2c1 | 130 |
| CNC(=O)Nc1ccc(OC)c(-c2ccc(C[C@H](NC(=O)c3c(Cl)cccc3Cl)C(=O)O)cc2)c1OC | 236 to 237 |
| N#CCCCCCC#Cc1nc(N)c2ncn(C3OC(CO)C(O)C3O)c2n1 (stereo not given) | 99 to 101 |
| CC(C)(C)c1cc(-c2cc(-c3ccc(C(=O)O)cc3)ccc2OCCO)ccc1N1CCCC1 | 223 |
| O=S1(=O)CCON=C1c1ccc(Cl)s1 | 113 to 114 |
| Cc1nc(C)n(-c2cc(C)c3[nH]c(=O)ccc3c2)c1Br | 273 |
| C=CCOC(=O)C(CCn1c(=O)c2c(ncn2C)n(C)c1=O)N(C)S(=O)(=O)c1ccc(Oc2ccccc2)cc1 (stereo not given) | 207 to 209 |
| Clc1cc(Br)c2ccccc2c1Cl | 84 to 86 |
| O=C(CCCOc1ccc(C=Cc2ccncc2)cc1)Nc1nnn[nH]1 | 274 to 276 |
| O=c1[nH]c2nc3ccccc3n2c(=O)n1CCc1ccccc1 | 298 |
| N#CC1CN1C(=O)CN1C(=O)c2ccccc2C1=O (stereo not given) | 126 to 128 |
| Nc1cc(OC(=O)Oc2cc(N)c(F)cc2Cl)c(Cl)cc1F | 136 to 137 |

| SMILES | melting point [°C] |
| --- | --- |
| CC(Cl)c1ccccc1S(N)(=O)=O (stereo not given) | 121 to 122 |
| [N-]=[N+]=NCC(O)c1cc(S(N)(=O)=O)ccc1F (stereo not given) | 86 |
| CCCCCCC1(CCCCCC)c2cc(Cl)ccc2-c2ccc(Cl)cc21 | 66 to 67 |
| COC(=O)c1ccc(Cl)cc1NC(=O)Cc1cccnc1 | 85 to 87 |
| Cn1c(CO)cc2cccc(F)c21 | 89 to 91 |
| Clc1cc(NC23CC4CC(CC(C4)C2)C3)nc(NC23CC4CC(CC(C4)C2)C3)n1 | 232 to 236 |
| Nc1cccc(-c2ccc(CCN3CC4C(N)C4C3)cc2)n1 (stereo not given) | 187 to 190 |
| CCn1c(=Nc2ccccc2)sc2ncccc2c1=O | 117 to 118 |
| CC(C)c1nn(-c2ccc(C(F)(F)F)cc2)cc1CCCOc1ccccc1CC(=O)O | 89 to 90 |
| COc1ccc(C2CCN(c3c(C)c(C)c4c(c3C)[C@@H](c3ccc(C)cc3)C(C)(C)O4)CC2)cc1OC | 102 to 106 |
| CCOC(=O)c1c(C)nc2c(c1NCCCN1CCOCC1)NC(=O)CN2 | 168 to 170 |
| CS(=O)(=O)c1ccc(-c2c(-c3ccc(Cl)cc3)[nH]c3ccc(Cl)cc23)cc1 | 269 to 271 |
| CN[C@@]1(C)CCN(c2c(-c3ccccc3)c(C)c(C#N)c3nc(C(=O)N(C)C)oc23)C1 | 172 to 174 |
| On1c(C(F)(F)F)nc2nc(Cl)c(Cl)cc21 | 207 to 208 |
| COc1ccc(C2C3=C(COC3=O)Nc3ccc4cc(C)[nH]c4c32)cc1O (stereo not given) | 293 to 294 |
| Cc1c(Cc2ccccc2)c(=O)oc2cc(OCC3NOC(=O)N3)cc(OCC3NOC(=O)N3)c12 (stereo not given) | 130 to 136 |
| CCOC(=O)c1c(=O)c2cc(F)c(F)cc2n2ccccc12 | 200 |
| CCOC(=O)c1c(CN(CC)CC)nc2ccc(Cl)cc2c1-c1ccccc1 | 107 to 108 |
| COc1nc(Br)cnc1NS(=O)(=O)c1cccc2c(N(C)C)cccc12 | 166 to 167 |
| O=C(c1ccc(Cl)c(Cl)c1)c1ccc(O)c(Cl)c1Cl | 179 to 180 |
| O=C1NC(=O)C(Cc2ccc(OCCc3cccc4ccccc34)cc2)S1 (stereo not given) | 121 to 122 |
| COc1ccc(-c2cccc(-c3nc(C(C)C)[nH]c3-c3cccc(C)n3)c2)cn1 | 72 to 74 |
| Fc1ccc2c(c1)nc(Cl)c1nncn12 | 305 to 308 |
| Nc1nc2ccc(CO)cc2n1Cc1cccc2cccnc12 | 230 |
| COC(=O)CCC(=O)c1ccc(N)cc1 | 160 to 162 |
| CC#CCOc1cc(C=O)ccc1OC | 81 to 83 |
| BrCCOc1ccc2[nH]c3ccccc3c2c1 | 135 to 136 |

| SMILES | melting point [°C] |
| --- | --- |
| CC(C)OC(=O)C1Oc2ccccc2Cc2ccccc2O1 | 94 to 97 |
| CCC(=O)N[C@@H](C)C(=O)N[C@@H](C)C(=O)NC1CCCCC1 | 299 to 300 |
| OCC1COC2(CCN(CCc3ccccc3)CC2)O1 (stereo not given) | 96 |
| CC1Cc2c(occ(C=O)c2=O)-c2ccccc21 (stereo not given) | 146 to 148 |
| CCCCc1cc(C(=O)O)ccc1C(N)C(=O)O (stereo not given) | 227 |
| Cc1nc2cc(-c3ccccc3C#N)ccc2[nH]1 | 205 to 208 |
| O=C1NC(=O)C(=Cc2ccc3c(c2)CN(c2ccccn2)CCO3)S1 | 260 to 261 |
| CCCCCCCCCCCCCCCCCCOc1ccc([N+](=O)[O-])cc1[N+](=O)[O-] | 63.5 to 64 |
| COc1ccc2nc(Cl)c(NN)nc2c1 | < 250 |
| COC(=O)NC(=N)C(C)C | 127 to 130 |
| CCOC(=O)/C(=C\Nc1ccc(OC)cc1)c1ccc(OC)cc1 | 90 to 91 |
| O=C(N[C@@H](CSc1ccccc1)[C@H]1CO1)OCc1ccccc1 | 61.7 |
| O=C(O)c1cc2cnc3ccccc3n2c1 | 242 to 247 |
| O=C(Nc1ccc(C(O)(C(F)(F)F)C(F)(F)F)cc1)Oc1ccccc1 | 192 to 194 |
| OC1CCCCC1c1ccccc1 (stereo not given) | 55 to 57 |
| Cc1ccc(Cc2nc3cc(Cl)c(S(N)(=O)=O)cc3[nH]2)cc1 | 214 to 217 |
| CCCC(CCC)n1nnc2c(Cl)nc(C)nc21 | 92 to 93 |
| COc1ncccc1C(=O)Nc1ccn2cc(-c3ccccc3)nc2n1 | 225 to 226 |
| CNC(=S)NCCCCc1nc[nH]c1Br | 153 to 155 |
| COc1ccc(S(=O)(=O)N2CC3CCC(C3)C2)c2ccccc12 | 136 to 139 |
| CCn1c(CCO)nc(C(C)C)c1Sc1cc(Cl)cc(Cl)c1 | 80 to 81 |
| CN1C(=O)Nc2ccc(Cl)cc2C12NC(=O)NC2=O (stereo not given) | > 280 |
| Cc1nc(-n2ccc(O)cc2=O)sc1C(=O)NCc1ccccc1 | 240 to 243 |
| COc1ccccc1N1CCN(CC(O)COc2ccccc2C(=O)O)CC1 (stereo not given) | 198 to 202 |
| O=C1CCC(N2C(=O)c3cccc(OCc4ccccc4)c3C2=O)C(=O)N1 (stereo not given) | 238 to 240 |
| Cc1nc2c(-c3cccc(N4CCN(C)CC4)c3)cnn2c(N)c1-c1ccc(F)c(Cl)c1 | 224 to 226 |
| Cc1ncsc1CNc1ccc(-n2nc(C(F)(F)F)cc2C2CC2)cc1 | 59.2 to 61.2 |

| SMILES | melting point [°C] |
| --- | --- |
| CC(C)Oc1ccccc1C1(OC(=O)N2CCN(c3ccncc3)CC2)C(=O)Nc2ccc(Cl)cc21 (stereo not given) | 196 to 198 |
| O=C1N(Cc2ccc(Cl)o2)c2ccccc2C12COc1cc3c(cc12)OCO3 (stereo not given) | 148 to 150 |
| Cc1cc(Cl)c2[nH]ncc2n1 | 218 |
| C#Cc1cn(C2CC(F)C(COC(c3ccccc3)(c3ccccc3)c3ccccc3)O2)c(=O)[nH]c1=O (stereo not given) | 54 |
| O=C1NCc2cccnc2N1c1cccc(I)c1 | 175 to 177 |
| COc1ccc(C(=O)c2c(F)cccc2F)c(O)c1 | 71 to 72 |
| CCCOC(=O)c1ccc(C(=O)NNC(=O)c2ccc(C(=O)OCCC)cc2)cc1 | 173 to 175 |
| CC(=O)Nc1c(N)cc(Br)cc1OCc1ccccc1 | 185 |
| CCOP(=O)(OCC)Oc1c(Br)c(C)nc(C)c1-c1ccc(Oc2ccc(OC(F)(F)F)cc2)cc1 | 80 to 81 |
| CCOC(=O)C(=O)Nc1ccc2c(c1)-c1c(c(C(=O)C(C#N)C(=O)Nc3ccccc3)nn1-c1ccccc1)CS2 (stereo not given) | 273 to 277 |
| O=C1CCN(c2ccncc2)CC1 | 101 to 104 |
| O=C(NCCCn1cncn1)c1ccc(Cl)nc1 | 87 to 89 |
| COc1ccc(-c2c(Cl)c(Cn3cncn3)nc3sc4c(c23)CCSC4)cc1 | 198 to 200 |
| COCc1nc2c(N)nc3cc(CCCNS(C)(=O)=O)ccc3c2n1CC(C)(C)O | 205 to 207 |
| COC(=O)C1C=CCN2C(=O)C(C)(CCI)C(=O)N12 (stereo not given) | 86 to 87 |
| CC(=O)Oc1cc(C(=O)Cc2ccccc2)cc([N+](=O)[O-])c1OC(C)=O | 94 to 95 |
| COc1ccc(CCCOCCn2cnc3c(N)nc4ccccc4c32)cc1 | 116 to 118 |
| CCN(CC)CCNC(=O)c1cc(Cl)c(N)cc1OCCC(C)O (stereo not given) | 136 to 138 |
| O=C(c1ccncc1)N1CCN(Cc2ccc3c(c2)-c2[nH]nc(-c4ccsc4)c2C3)CC1 | 168 to 170 |
| Cc1cc(C)c(N)cn1 | 62 to 64 |
| O=c1[nH]nc2n1-c1ccc(Cl)nc1C(c1ccccc1Cl)=NC2O (stereo not given) | 260 to 262 |
| Cc1c(S(=O)(=O)c2ccc(=O)[nH]n2)oc2cc(Cl)ccc12 | > 240 |
| Nc1nc(Cl)c2cnn(Cc3ccccc3F)c2n1 | 197 to 198 |
| CCCc1c(C(=O)NCc2ccc3c(Br)c(OCC#N)ccc3c2)cnn1-c1ccccc1 | 175 to 176 |
